For one assay, the system named is GBM patients. The assay is described as follows: Prospective cohort of GBM patients, survival (Kaplan Meier analysis). Format: in vivo, human. To be noted: for median survival: radiotherapy with temozolomide. The method, then:
Kaplan-Meier survival estimates for 102 GBM patients are calculated for TOP2A transcript levels. Survival curves for the groups positive (log 2 ratio≧9.25; n=34) and negative (log 2 ratio<9.25; n=68) for TOP2A in univariate analysis.
Newly diagnosed glioblastoma patients (n=102) who underwent surgery in the two clinical centers (NIMHANS/SSIHMS) were prospectively included. Approval by the ethics committee and patient consent were obtained prior to initiation of the study. The patients were recruited based on the following inclusion criteria: 1) Adult patients (age between 18 to 65 years) with a supratentorial lobar tumor 2) Patients who underwent maximal safe resection of the tumor with minimal residue noted on post operative MRI scan 3) Patients with post operative Karnofsky's Performance Score (KPS)≧70.
All patients underwent maximal safe resection of the tumor. All patients underwent uniform adjuvant therapy consisting of radiotherapy, administered with a total dose of 59.4 Gy, given in 33 fractions, along with concomitant chemotherapy with temozolamide, administered at the dose of 100 mg/day which was continued daily for 45 days. Subsequently, five cycles of cyclical chemotherapy with temozolamide at the dose of 150 mg/sq. m body surface area for 5 days every 28 days was administered. The patients were followed up clinically and with MR imaging. The maximum follow up period was 34 months.
A cohort of 102 patients of GBM were prospectively recruited and managed by standard treatment protocol (as explained in methods). […] In this cohort, as expected, age was an important predictor of poor outcome as noted by Cox regression analysis (p=0.037; HR=1.023; B=0.022). […] The effect of TOP2A transcript level and age on survival was further evaluated by Cox proportional hazard model to elicit the independent effect of TOP2A on survival. It was noted that both age (p=0.033; HR=1.023; B=0.023) and TOP2A transcript level (p=0.035; HR=0.888; B=−0.119) were significant predictors by multivariate analysis. […]

Another assay concerns U251 glioma cells. The assay is described as follows: Cell viability (MTT) assay in U251 cells transfected with TOP2A or cyclophilin siRNA. Format: cell-based. The conditions noted are these: MTT assay after 48 hrs. The method, then: At test for difference in the % viability of the control and TOP2A siRNA treated cells was estimated and the p values are shown: 2, 4, 8 and 16 μg/mL; p=0.0297, 0.0336, <0.0001 and 0.042 respectively.
The experiment was carried out as in “D” but the cells were treated with temozolomide. At test for difference in the % viability of the control and TOP2A siRNA treated cells was estimated and the p values are shown: 250, 500, 1000 and 2000 μM; p=0.0668, 0.0097, 0.0687 and 0.0134 respectively.
U373, U138, LN18, LN229, U343, U87, K562, U251 and SVG cells were cultured in DMEM respectively with 10% Fetal bovine serum, penicillin and streptomycin at 37° C. in a humidified atmosphere with 5% CO2. The human TOP2A and cyclophilin siRNA duplexes were designed and chemically synthesized by Dharmacon Research (Lafayette, Colo.). The SMARTpool siRNA is a mixture of four different siRNA duplexes targeting distinct coding region sequences of TOP2A (Genbank™ accession number NM_001067). […]
For chemosensitivity assays, 24 hours after plating, the cells were treated with the cytotoxic drugs and incubated at 37° C., 5% CO2 for 45 hours. […] Three hours after MTT addition, the formazan crystals were dissolved in DMSO (200 μl) and measured as absorbance at 550 nm. The absorbance by the control cells was considered to be 100% and all samples were normalized to the control cells. […]
In general terms: Tetrazolium assays rely on reduction of a dye to a coloured formazan, in cell work by metabolically active cells.

As to `Cn1nnc2c(C(N)=O)ncn2c1=O` [temozolomide], the median overall survival in the assay with GBM patients (102 GBM patients, resection, radiotherapy with concomitant and cyclical adjuvant temozolomide) turned out to be 16 months. Also, the median survival in the assay on GBM patients (patients with TOP2A mRNA levels <9.25 log 2 ratio) is recorded as 13 months; in the assay with GBM patients (patients with TOP2A mRNA levels ≧9.25 log 2 ratio) it was 22 months.
Consider `COc1cc([C@@H]2c3cc4c(cc3[C@@H](O[C@@H]3O[C@@H]5CO[C@@H](C)O[C@H]5[C@H](O)[C@H]3O)[C@H]3COC(=O)[C@H]23)OCO4)cc(OC)c1O` [etoposide], for which the “sensitivity of TOP2A siRNA transfected cells in comparison to cyclophilin siRNA transfected cells” value with U251 glioma cells is recorded as “less efficiently”.
